Laboratory results as given in US20220330549A1, “USE OF N-BENZYLBENZAMIDE-BASED COMPOUND AS HERBICIDE” (Northwest A&F University, priority 2020, published 2022).

How the values were obtained:
Assay type in all cases: in vivo
Humulus scandens [1] = assay: Herbicidal activity test for indoor pre-emergence soil treatment; conditions: 150 g a.i./ha, visual inspection 21 days after treatment
In short: (§1)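 Pre-emergence soil spray per NY/T 1155.3-2006: weed seeds sown in moistened neutral sandy loam (organic content ≤2%), covered with 0.5–2.0 cm soil, then sprayed 24 h later with a water-diluted 10% emulsifiable concentrate at 150 g(a.i.)/ha. Visual rating after 21 days on a 1–9 scale.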

Gramineae = assay: Post-emergence herbicidal activity test in a paddy field; set-up: key: level scale; higher level = more weed left vs blank control; conditions: 150 g a.i./ha (penoxsulam control 250 g(a.i.)/h)
In short: (§2)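 Efficacy was visually estimated 15 and 30 days after spraying, grading weed coverage relative to an untreated neighbouring plot (level 2 = 0 to 2.5%, level 9 = 67.6 to 100%). Treatments were 150 g(a.i.)/ha from 10% emulsifiable concentrates applied at the 4-5 leaf rice stage, four repeats of 50 m^2 each.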

Cyperaceae = assay: as above; set-up: key: level scale; higher level = more weed left vs blank control; conditions: 150 g a.i./ha (penoxsulam control 250 g(a.i.)/h)
In short: as §2

Broadleaf weed = assay: as above; set-up: key: level scale; higher level = more weed left vs blank control; conditions: 150 g a.i./ha (penoxsulam control 250 g(a.i.)/h)
In short: as §2

green bristlegrass [2] = assay: Field test for weed control in a corn field; conditions: 150 g a.i./ha, after treatment
In short: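 Herbicidal activity against green bristlegrass was assessed in corn field plots of 20 m^2 per GB/T 17980.42-2000. Test agents, formulated as 10% emulsifiable concentrates, were applied in water at 150 g(a.i.)/ha at the corn 2 leaves to 5 leaves stage, repeated 4 times. A 25% mesotrione oil dispersion served as the control agent, and weed damage was rated on levels 1-9.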

Barnyard grass [3] = assay: Field test for weed control in a corn field; conditions: 150 g a.i./ha, 30 days after treatment
In short: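 Herbicidal activity against barnyard grass was assessed in corn field plots of 20 m^2, with four replicates per treatment. Compounds were applied as water-diluted 10% emulsifiable concentrates at 150 g(a.i.)/ha at the 2-5 leaf corn stage, with 25% mesotrione oil dispersion as the reference agent. Damage was scored on a 1-9 scale against untreated blank plots.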

nutgrass flatsedge = assay: Field test for weed control in a corn field; conditions: 150 g a.i./ha, after treatment
In short: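 Herbicidal effect on nutgrass flatsedge was measured in a field planted with corn, using the GB/T 17980.42-2000 method. Emulsifiable concentrates (10%) in water were sprayed at 150 g(a.i.)/ha during the 2-leaf to 5-leaf corn stage, on 20 m^2 plots repeated 4 times. 25% mesotrione oil dispersion was the control agent. Activity was scored from 1 to 9 by weed remaining relative to blank control plots.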

Acalypha australis = assay: Field test for weed control in a corn field; conditions: 150 g a.i./ha, after treatment
In short: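 Herbicidal activity against weeds was assessed in corn plots by the GB/T 17980.42-2000 method. Corn at the 2–5 leaf stage received water sprays of 10% emulsifiable concentrates at 150 g(a.i.)/ha, four repeats per treatment over 20 m^2. A 25% mesotrione oil dispersion was the reference. Damage symptoms and severity were rated on levels 1-9 relative to weeds in the blank control area.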

Digitaria sanguinalis [4] = assay: Field test for weed control in a corn field; conditions: 150 g a.i./ha, after treatment
In short: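 Field trial in a corn field following GB/T 17980.42-2000. Test compounds were formulated as 10% emulsifiable concentrates, diluted in water and sprayed post-emergence at 150 g(a.i.)/ha when corn had 2 to 5 leaves, with 4 replicates on 20 m^2 plots. Control of Digitaria sanguinalis was scored on a 1-9 scale based on weed damage relative to the untreated blank area.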

Chenopodium album = assay: Field test for weed control in a corn field; conditions: 150 g a.i./ha, after treatment
In short: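 Field weed-control testing in corn, run per GB/T 17980.42-2000, scored Chenopodium album on a 1-9 level scale, where each level matches a percentage range of weed remaining relative to the blank control area. Sprays of 10% emulsifiable concentrates in water delivered 150 g(a.i.)/ha at the corn 2-leaf to 5-leaf stage on 20 m^2 plots, four replicates each. Mesotrione 25% oil dispersion served as reference.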

Solanum nigrum = assay: Field test for weed control in a corn field; conditions: 150 g a.i./ha, 30 days after treatment
In short: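 In a corn field trial based on GB/T 17980.42-2000, 10% emulsifiable concentrates diluted in water were sprayed at 150 g(a.i.)/ha at the 2 to 5 leaf stage of corn. Each treatment used 20 m^2 plots and was repeated 4 times, with 25% mesotrione oil dispersion as the reference agent. Solanum nigrum damage was scored on a 1-9 scale against blank control plots.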

Amaranthus retroflexus [5] = assay: Field test for weed control in a corn field; conditions: 150 g a.i./ha, 30 days after treatment
In short: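 Post-emergence control of Amaranthus retroflexus was assessed in corn plots using the GB/T 17980.42-2000 method. Emulsifiable concentrates (10%) in water were applied by spraying at the 2- to 5-leaf crop stage on 20 m^2 plots, four replicates each, alongside a mesotrione 25% oil dispersion reference. Herbicidal activity was scored on 1-9 levels by weed amount relative to blank control areas.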

Portulaca oleracea = assay: Field test for weed control in a corn field; conditions: 150 g a.i./ha, after treatment
In short: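 Post-emergence weed control was evaluated in a corn field by the GB/T 17980.42-2000 method. Emulsifiable concentrates (10%) in water were applied as sprays at 150 g(a.i.)/ha at the 2-5 leaf corn stage, in four replicate 20 m^2 plots. A 25% mesotrione oil dispersion served as control agent. Effects were graded 1-9 relative to weed remaining in blank control areas.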

goosegrass = assay: Field test for weed control in a corn field; conditions: 150 g a.i./ha, after treatment
In short: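 In this field trial in corn, run per GB/T 17980.42-2000, test agents prepared as 10% emulsifiable concentrates were applied in water as sprays at 150 g(a.i.)/ha at the 2- to 5-leaf corn stage. Each treatment covered 20 m^2 and was repeated 4 times. Goosegrass control was scored 1-9 relative to weed remaining in blank control areas.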

Convolvulus arvensis = assay: Field test for weed control in a corn field; conditions: 150 g a.i./ha, after treatment
In short: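 Post-emergence herbicidal activity on Convolvulus arvensis was scored in a corn field on a 1-9 scale, based on symptoms and damage severity. Each level corresponds to the weed remaining as a percentage of the blank control area. Sprays of 10% emulsifiable concentrate at 150 g(a.i.)/ha went on at the corn 2–5 leaf stage, with four replicates of 20 m^2 per treatment.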

green bristlegrass [6] = assay: Herbicidal activity test for indoor post-emergence spraying on stems and leaves; set-up: key: grade level by weed remaining vs blank control, e.g. 5 = 10.1-15%; conditions: 150 g a.i./ha, visual inspection 21 days after treatment
In short: (§3)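 Following national standard NY/T 1155.4-2006, seedlings raised in a greenhouse receive stem-and-leaf spraying after emergence; 21 days on, surviving weed is compared by eye with the blank control area and assigned a graded level (e.g., level 6 = 15.1–25%).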

Barnyard grass [7] = assay: as above; set-up: key: grade level by weed remaining vs blank control, e.g. 5 = 10.1-15%; conditions: 150 g a.i./ha, visual inspection 21 days after treatment
In short: as §3

Digitaria sanguinalis [8] = assay: as above; set-up: key: grade level by weed remaining vs blank control, e.g. 5 = 10.1-15%; conditions: 150 g a.i./ha, visual inspection 21 days after treatment
In short: as §3

Amaranthus retroflexus [9] = assay: as above; set-up: key: grade level by weed remaining vs blank control, e.g. 5 = 10.1-15%; conditions: 150 g a.i./ha, visual inspection 21 days after treatment
In short: as §3

Piemarker [10] = assay: as above; set-up: key: grade level by weed remaining vs blank control, e.g. 5 = 10.1-15%; conditions: 150 g a.i./ha, visual inspection 21 days after treatment
In short: as §3

Humulus scandens [11] = assay: as above; set-up: key: grade level by weed remaining vs blank control, e.g. 5 = 10.1-15%; conditions: 150 g a.i./ha, visual inspection 21 days after treatment
In short: as §3

green bristlegrass [12] = assay: Herbicidal activity test for indoor pre-emergence soil treatment; set-up: key: level 1-9; higher = more weed remaining vs blank control; conditions: 150 g a.i./ha, visual inspection 21 days after treatment
In short: as §1

Barnyard grass [13] = assay: as above; set-up: key: level 1-9; higher = more weed remaining vs blank control; conditions: 150 g a.i./ha, visual inspection 21 days after treatment
In short: as §1

Piemarker [14] = assay: as above; set-up: key: level 1-9; higher = more weed remaining vs blank control; conditions: 150 g a.i./ha, visual inspection 21 days after treatment
In short: as §1

Digitaria sanguinalis [15] = assay: as above; set-up: key: 1-9 levels; higher = more weed remaining vs blank control; conditions: 150 g a.i./ha, visual inspection 21 days after treatment
In short: as §1

Amaranthus retroflexus [16] = assay: as above; set-up: key: 1-9 levels; higher = more weed remaining vs blank control; conditions: 150 g a.i./ha, visual inspection 21 days after treatment
In short: as §1

Row | Compound | Herbicidal Activity Humulus scandens (Humulus scandens [1]) | Herbicidal activity 15 days after treatment Gramineae (Gramineae) | Herbicidal activity 30 days after treatment Gramineae (Gramineae) | Herbicidal activity 15 days after treatment Cyperaceae (Cyperaceae) | Herbicidal activity 30 days after treatment Cyperaceae (Cyperaceae) | Herbicidal activity 15 days after treatment Broadleaf weed (Broadleaf weed) | Herbicidal activity 30 days after treatment Broadleaf weed (Broadleaf weed) | Post-emergence weed control effect, Green bristlegrass (green bristlegrass [2]) | Post-emergence weed control effect, Barnyard grass (Barnyard grass [3]) | Post-emergence weed control effect, Nutgrass flatsedge (nutgrass flatsedge) | Post-emergence weed control effect, Acalypha australis (Acalypha australis) | Post-emergence weed control effect, Digitaria sanguinalis (Digitaria sanguinalis [4]) | Post-emergence weed control effect, Chenopodium album (Chenopodium album) | Post-emergence weed control effect, Solanum nigrum (Solanum nigrum) | Post-emergence weed control effect, Amaranthus retroflexus (Amaranthus retroflexus [5]) | Post-emergence weed control effect, Portulaca oleracea (Portulaca oleracea) | Post-emergence weed control effect, Goose grass (goosegrass) | Post-emergence weed control effect, Convolvulus arvensis (Convolvulus arvensis) | Herbicidal Activity Green bristlegrass (green bristlegrass [6]) | Herbicidal Activity Barnyard grass (Barnyard grass [7]) | also measured
1 | COc1ccccc1C(=O)NCc1cccc(C)c1 [Compound A14, 2-methoxy-N-(3-methylbenzyl)benzamide] | 3 (equivalent to 2.6 to 5% of the weed in the blank control area) | 1 | 2 (equivalent to 0 to 2.5% of the weed in the blank control area) | 1 | 2 (equivalent to 0 to 2.5% of the weed in the blank control area) | 1 | 2 (equivalent to 0 to 2.5% of the weed in the blank control area) | 1 | 1 | 2 (equivalent to 0 to 2.5% of the weed in the blank control area) | 2 (equivalent to 0 to 2.5% of the weed in the blank control area) | 2 (equivalent to 0 to 2.5% of the weed in the blank control area) | 1 | 2 (equivalent to 0 to 2.5% of the weed in the blank control area) | 1 | 1 | 1 | 1 | 1 | 2 (equivalent to 0 to 2.5% of the weed in the blank control area) | Herbicidal Activity Digitaria sanguinalis (Digitaria sanguinalis [8]): 1; Herbicidal Activity Amaranthus retroflexus (Amaranthus retroflexus [9]): 1; Herbicidal Activity Piemarker (Piemarker [10]): 1; Herbicidal Activity Humulus scandens (Humulus scandens [11]): 1; Herbicidal Activity Green bristlegrass (green bristlegrass [12]): 1; Herbicidal Activity Barnyard grass (Barnyard grass [13]): 2 (equivalent to 0 to 2.5% of the weed in the blank control area); Herbicidal Activity Piemarker (Piemarker [14]): 1; Herbicidal Activity Digitaria sanguinalis (Digitaria sanguinalis [15]): 2 (equivalent to 0 to 2.5% of the weed in the blank control area); Herbicidal Activity Amaranthus retroflexus (Amaranthus retroflexus [16]): 2 (equivalent to 0 to 2.5% of the weed in the blank control area)
2 | Cc1cccc(C(=O)NCc2cc(F)cc(Cl)c2)c1 [Compound B07] | 3 (equivalent to 2.6 to 5% of the weed in the blank control area) | 2 (equivalent to 0 to 2.5% of the weed in the blank control area) | 2 (equivalent to 0 to 2.5% of the weed in the blank control area) | 1 | 1 | 1 | 1 | 2 (equivalent to 0 to 2.5% of the weed in the blank control area) | 1 | 2 (equivalent to 0 to 2.5% of the weed in the blank control area) | 2 (equivalent to 0 to 2.5% of the weed in the blank control area) | 2 (equivalent to 0 to 2.5% of the weed in the blank control area) | 1 | 2 (equivalent to 0 to 2.5% of the weed in the blank control area) | 1 | 1 | 2 (equivalent to 0 to 2.5% of the weed in the blank control area) | 1 | 1 | 1 | Herbicidal Activity Digitaria sanguinalis (Digitaria sanguinalis [8]): 1; Herbicidal Activity Amaranthus retroflexus (Amaranthus retroflexus [9]): 1; Herbicidal Activity Piemarker (Piemarker [10]): 1; Herbicidal Activity Humulus scandens (Humulus scandens [11]): 1; Herbicidal Activity Green bristlegrass (green bristlegrass [12]): 1; Herbicidal Activity Barnyard grass (Barnyard grass [13]): 1; Herbicidal Activity Piemarker (Piemarker [14]): 1; Herbicidal Activity Digitaria sanguinalis (Digitaria sanguinalis [15]): 1; Herbicidal Activity Amaranthus retroflexus (Amaranthus retroflexus [16]): 2 (equivalent to 0 to 2.5% of the weed in the blank control area)
